Measured values as given in US11559525B2, “Therapeutic drug for dyskinesia” (Sumitomo Pharma Co., Ltd., priority 2019, dated 2023).
Structures can show the parent of a compound that is named as a salt.

Experiments:
[1] = test system: PD-LID rat model (6-OHDA-lesioned rats); experiment: Tandospirone metabolite 1-PP on dyskinesia-like symptoms in PD-LID rat model; format: in vivo; details: subcutaneous 10 or 30 mg/kg
Procedure: The behavior was observed and evaluated using the same method in Example 2. 1-PP dihydrochloride (Tokyo Chemical Industry) was dissolved in saline and subcutaneously administered to rats. After 5 minutes, a levodopa containing solution was intraperitoneally administered to observe and evaluate the behavior. The results in the drawings are indicated in terms of mean value±standard error. The test results were statistically analyzed by comparison with the solvent administration group by Steel test by using the total AIMs score in 3 hours and total AIMs score in 100 to 180 minutes as parameters.

[2] = test system: PD-LID rat model (6-OHDA-lesioned rats); experiment: Oral administration of tandospirone citrate on dyskinesia-like symptoms in PD-LID rat model; format: in vivo; details: oral 30 or 100 mg/kg
[3] = Plasma tandospirone concentration measured after observation and evaluation of behavior in PD-LID rats; format: in vivo, rat; details: continuous subcutaneous infusion 60 mg/mL citrate
Procedure: 50 μL of rat plasma sample was fractionated into a polypropylene microtube. 50 μL of methanol (50 μL of standard solution for calibration curve sample) and 200 μL of internal standard solution (Bezafibrate methanol solution: 200 nmol/L, 200 μL of methanol for blank sample) are added and stirred for about 10 seconds with a mixer. This is centrifuged (4° C., 4500 rpm, 10 min), and then the supernatant is subjected to vacuum filtration using a filter (FastRemover MF 0.2 μm). 70 μL of aqueous 10 mmol/L ammonium acetate solution is added to 70 μL of the resulting filtrate and stirred for about 10 seconds with a mixer to prepare a measurement sample.
When evaluating a tape agent, the hair on the abdominal region of rats was shaved before the evaluation date. The tape agent of formulation 2 was applied to the abdominal regions of rats on the evaluation date at 60 cm^2/kg (37 mg/kg). After 4 hours from application, a levodopa containing solution was intraperitoneally administered to observe and evaluate the behavior. Individuals with 50% or more of the tape agent coming off during the test were excluded from analysis.
After 4 hours from application, a levodopa containing solution was intraperitoneally administered to observe and evaluate the behavior. Individuals with 50% or more of the tape agent coming off during the test were excluded from analysis.
After 4 hours, a levodopa containing solution was administered to observe and evaluate the behavior.
After 4 hours, a levodopa containing solution was administered to observe and evaluate the behavior (day 0 of implanting the pump). Repeat administration of once daily levodopa containing solution was continued thereafter. The behavior was also observed and evaluated on day 13 of implanting the pump.

6-OHDA-lesioned rats = experiment: Prevention/delay of manifestation of dyskinesia by continuous subcutaneous infusion in 6-OHDA-lesioned rats; format: in vivo, rat
Procedure: The prepared solution was used after injection into an ALZET® Osmotic Pump MODEL 2ML2 (4.53 μL/hour; DURECT).
6-OHDA-lesioned rats were assigned to each administration group using the number of apomorphine hydrochloride hemihydrate induced rotations and body weight as indicators. […] The osmotic pump implanted subcutaneously was retrieved after the observation and evaluation of behavior on day 15. The behavior was also observed and evaluated on the following day (day 16 of repeated administration of levodopa).
The test results were statistically analyzed by comparison with the solvent administration group using Steel test with the total AIMs score on day 16 of repeated levodopa administration as the parameter. * indicates p<0.05 and ** indicates p<0.01, meaning that there is a significant difference compared to the solvent administration group.

[4] = test system: PD-LID rat model (6-OHDA-lesioned rats); experiment: Oral administration of tandospirone citrate on dyskinesia-like symptoms in PD-LID rat model; format: in vivo; details: oral 10, 30, or 100 mg/kg as citrate concentration, levodopa 5 minutes later
Procedure: The behavior was observed and evaluated using the same method as Example 2. […] After 5 minutes, a levodopa containing solution was intraperitoneally administered, and the behavior was observed and evaluated. The results in the drawings are indicated in terms of mean value±standard error. The test results were statistically analyzed by comparison with the solvent administration group by Steel test using the total AIMs score in 3 hours and total AIMs score in 100 to 180 minutes as parameters. * indicates p<0.05, meaning that there is a significant difference. The dosage was described as a numerical value converted in terms of tandospirone free form.

[5] = test system: PD-LID rat model (6-OHDA-lesioned rats); experiment: ON-time prolongation action (ON score, ON time without dyskinesia) in PD-LID rat model; format: in vivo
Procedure: To make a PD-LID rat model, a mixture of levodopa methyl ester hydrochloride (6 mg/kg; Sigma-Aldrich) dissolved in saline and benserazide hydrochloride (15 mg/kg; Sigma-Aldrich) (hereinafter, also referred to as “levodopa containing solution”) was intraperitoneally administered once daily to 6-OHDA-lesioned rats. The levodopa containing solution was repeatedly administered for 3 weeks or longer to observe and evaluate the behavior. […] The sum of the scores for Limb AIMs, Axial AIMs, and Orolingual AIMs in 3 hours was used as the total dyskinesia-like symptom (AIMs) score. Individuals with a total AIMs score of less than 10 were excluded from the test as not manifesting a dyskinesia-like symptom. The behavior was observed and evaluated before the drug evaluation date. The rats were assigned to each dosing group by using the 3 hour total dyskinesia-like symptom (AIMs) score, Locomotive behavior score, and rat body weight as indicators, which were used for evaluation of drugs. For an indicator of dyskinesia behavior, the sum of the Limb AIMs, Axial AIMs, and Orolingual AIMs at each evaluation point was used as the AIMs score. For the rotational behavior (ON score), Locomotive behavior at each evaluation point was used as an indicator. The total ON score in 3 hours was used as the total ON score. For ON time without dyskinesia, the period during which the AIMs score is 0 and Locomotive behavior is 1 or greater at each evaluation point was added. Duration of action of levodopa without a dyskinesia symptom (ON time without dyskinesia) refers to the aggregate time with no dyskinesia during the antiparkinsonian action effective time, i.e., “ON-time”, and defined as the time during which the dyskinesia symptom (AIMs) score is 0 and the rotational behavior (Locomotive behavior) score is 1 or greater at each evaluation point after levodopa administration. […] After 5 minutes, a levodopa containing solution was intraperitoneally administered, and the behavior was observed and evaluated. The results in the drawings are indicated in terms of mean value±standard error. The test results were statistically analyzed by comparison with the solvent administration group using the Steel test with the total ON score in 3 hours or ON time without dyskinesia as an indicator. ** indicates p<0.01, meaning that there is a significant difference. For evaluation of a tape agent, the abdominal regions of the rats were shaved prior to the evaluation date. […] After 4 hours from application, a levodopa containing solution was intraperitoneally administered to observe and evaluate the behavior. The results in the drawings are indicated in terms of mean value±standard error. Individuals with 50% or more of the tape agent coming off during the test were excluded from analysis. The test results were statistically analyzed by comparison with the placebo tape administration group using Wilcoxon rank sum test with the total ON score in 3 hours or ON time without dyskinesia as an indicator. * indicates p<0.05 and ** indicates […], meaning that there is a significant difference compared to the solvent oral administration group or the placebo tape administration group.

[6] = test system: PD-LID rat model (6-OHDA-lesioned rats); experiment: Long-term dyskinesia improving effect of continuous subcutaneous infusion in PD-LID rat model; format: in vivo
Procedure: Individuals with a total AIMs score of less than 15 were excluded from the test as not manifesting a dyskinesia-like symptom. The behavior was observed and evaluated before the drug evaluation date. The rats were assigned to each dosing group by using the 3 hour AIMs score, Locomotive behavior score, and rat body weight as indicators, which were used for evaluation of drugs. […] The prepared solution was used after injection into an ALZET® Osmotic Pump MODEL 2ML2 (4.53 μL/hour; DURECT) for releasing a drug solution at a stable rate for 2 weeks. […] After 4 hours, a levodopa containing solution was administered to observe and evaluate the behavior (day 0 of implanting the pump). Repeat administration of once daily levodopa containing solution was continued thereafter. The behavior was also observed and evaluated on day 13 of implanting the pump. […] The results in the drawings are indicated in terms of mean value±standard error of the total AIMs scores in 3 hours. The test results were statistically analyzed using Wilcoxon rank sum test using the total AIMs score as a parameter. ** indicates p<0.01, meaning that there is a significant difference compared to the solvent administration group.

[7] = oral 30 mg/kg and 100 mg/kg as citrate

| Molecule | clear dyskinesia-like symptom (mean AIMs score of 2 or greater) at 120 to 140 minutes after levodopa [1] | total AIMs score in 100 to 180 minutes vs solvent [1] | total AIMs score vs solvent ([1]; levodopa 5 minutes later) | clear dyskinesia-like symptom (mean AIMs score of 2 or greater) at 120 to 140 minutes after levodopa administration [2] | total AIMs score in 100 to 180 minutes vs solvent [2] | mean value of plasma tandospirone concentrations (converted in terms of free form) ([3]; day 0 of implanting the pump) [ng/mL] | mean value of plasma tandospirone concentrations (converted in terms of free form) ([3]; day 13 of implanting the pump) [ng/mL] | increase in total AIMs score associated with repeated administration of levodopa vs solvent (6-OHDA-lesioned rats; continuous subcutaneous infusion 30 mg/mL (mean 0.41 mg/kg/hour) or 60 mg/mL (mean 0.83 mg/kg/hour), days 3-15) | total AIMs score on the day after completion of administration (day 16) vs solvent (6-OHDA-lesioned rats; continuous subcutaneous infusion 30 or 60 mg/mL, pump retrieved day 15) | total AIMs score vs solvent [4] | ON time without dyskinesia for 180 minutes vs solvent [5, 7] | total ON score after 180 minutes of levodopa administration vs solvent [5, 7] | ON-time without dyskinesia for 180 minutes (Locomotive behavior ≥1, and AIMs score=0) ([5]; oral 100 mg/kg as citrate) | total ON score ([5]; oral 100 mg/kg as citrate) | dyskinesia-like symptoms (total AIMs score in 180 minutes) vs solvent ([6]; continuous subcutaneous infusion 60 mg/mL (mean 0.78 mg/kg/hour as citrate), day 0 of implanting the pump) | dyskinesia-like symptoms (total AIMs score in 180 minutes) vs solvent ([6]; continuous subcutaneous infusion 60 mg/mL citrate, day 13 of implanting the pump) |
| --- | --- | --- | --- | --- | --- | --- | --- | --- | --- | --- | --- | --- | --- | --- | --- | --- |
| c1cnc(N2CCNCC2)nc1 [1-PP dihydrochloride, 1-(2-Pyrimidyl) piperazine] | clear dyskinesia-like symptom (mean AIMs score of 2 or greater) was observed | increasing trend in the total AIMs score, albeit not significant | significant change in the total AIMs score was not found | – | – | – | – | – | – | – | – | – | – | – | – | – |
| tandospirone citrate | – | – | – | clear dyskinesia-like symptom (mean AIMs score of 2 or greater) was observed | significant increase | 281 | 143 | suppressed the increase in total AIMs score | significantly lower | significant change in the total AIMs score was not observed | increase in ON time without dyskinesia | increase in the total ON score | significant prolongation | increase in the total ON score | Significant improvement | significant improvement |
